“And” between values parts separate entries of the source, which are not always exact repeats. Identical values can stand only once. Like-named read-outs stand apart in the source and are kept apart here.
Experiments:
[1] = tested on: serotonin 5-HT1 receptors; details: Rickli et al., 2016; cited from earlier work
5-HT transporter (SERT) = 5-HT transporter (SERT) (Homo sapiens, UniProt P31645); details: Rickli et al., 2016; cited from earlier work
healthy humans = details: cited from earlier work
healthy human subjects [2] = details: two subjects; FIGS. 12, 13
5-HT2A receptor = 5-HT2A receptor (Homo sapiens, UniProt P28223); details: Rickli et al., 2016; cited from earlier work
Sequence of 5-HT2A receptor (P28223 whole entry): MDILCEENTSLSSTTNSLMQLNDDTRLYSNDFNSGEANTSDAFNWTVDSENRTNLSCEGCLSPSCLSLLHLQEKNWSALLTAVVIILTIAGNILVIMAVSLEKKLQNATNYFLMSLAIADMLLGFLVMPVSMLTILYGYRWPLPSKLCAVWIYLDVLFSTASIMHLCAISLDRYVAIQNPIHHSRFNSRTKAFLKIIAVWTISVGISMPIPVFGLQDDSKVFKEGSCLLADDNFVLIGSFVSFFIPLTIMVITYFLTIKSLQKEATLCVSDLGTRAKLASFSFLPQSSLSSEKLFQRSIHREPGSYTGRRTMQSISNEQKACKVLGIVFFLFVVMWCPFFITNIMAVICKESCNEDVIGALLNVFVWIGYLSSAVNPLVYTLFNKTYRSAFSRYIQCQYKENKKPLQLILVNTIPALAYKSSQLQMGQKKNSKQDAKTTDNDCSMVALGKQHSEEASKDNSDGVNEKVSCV

healthy human subjects [3] = assay: Adverse effects, list of complaints (LC) score, LSD-MDMA clinical study; details: 0.1 mg LSD, 100 mg MDMA or both; mean of two subjects; placebo 5
healthy human subjects [4] = assay: Subjective effects Visual Analog Scales (VAS), LSD-MDMA clinical study; details: for peak subjective effects ratings of any drug effect (VAS): oral, mean of two healthy subjects; for bad drug effects (VAS): FIG. 3A; for ratings of being talkative (VAS): FIG. 8A; for wanting to be alone / with other people (VAS): FIGS. 10A and 10B
D1-3 receptors = details: Rickli et al., 2016; cited from earlier work
D2 receptors = D2 receptors (Homo sapiens, UniProt P14416); details: cited from earlier work
Sequence of D2 receptors (P14416 whole entry): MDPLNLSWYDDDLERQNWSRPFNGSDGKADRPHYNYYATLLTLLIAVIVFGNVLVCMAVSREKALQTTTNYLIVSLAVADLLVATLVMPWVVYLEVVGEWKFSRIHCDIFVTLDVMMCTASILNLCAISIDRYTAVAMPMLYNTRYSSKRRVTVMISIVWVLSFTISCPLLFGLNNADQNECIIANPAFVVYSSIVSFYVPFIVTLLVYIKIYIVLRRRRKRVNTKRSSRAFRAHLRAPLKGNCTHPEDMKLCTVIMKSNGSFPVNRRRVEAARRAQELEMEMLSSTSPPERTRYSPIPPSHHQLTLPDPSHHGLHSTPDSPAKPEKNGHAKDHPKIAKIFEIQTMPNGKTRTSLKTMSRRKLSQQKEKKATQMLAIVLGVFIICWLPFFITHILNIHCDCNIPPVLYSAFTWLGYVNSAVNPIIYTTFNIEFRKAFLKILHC

humans = details: cited from earlier work
[5] = 0.1 mg LSD, 100 mg MDMA or both, FIG. 2A
[6] = 0.1 mg LSD, 100 mg MDMA or both, two subjects
[7] = oral administration (Vizeli et al., 2017)

Sequence of 5-HT transporter (SERT) (P31645 whole entry, species assumed): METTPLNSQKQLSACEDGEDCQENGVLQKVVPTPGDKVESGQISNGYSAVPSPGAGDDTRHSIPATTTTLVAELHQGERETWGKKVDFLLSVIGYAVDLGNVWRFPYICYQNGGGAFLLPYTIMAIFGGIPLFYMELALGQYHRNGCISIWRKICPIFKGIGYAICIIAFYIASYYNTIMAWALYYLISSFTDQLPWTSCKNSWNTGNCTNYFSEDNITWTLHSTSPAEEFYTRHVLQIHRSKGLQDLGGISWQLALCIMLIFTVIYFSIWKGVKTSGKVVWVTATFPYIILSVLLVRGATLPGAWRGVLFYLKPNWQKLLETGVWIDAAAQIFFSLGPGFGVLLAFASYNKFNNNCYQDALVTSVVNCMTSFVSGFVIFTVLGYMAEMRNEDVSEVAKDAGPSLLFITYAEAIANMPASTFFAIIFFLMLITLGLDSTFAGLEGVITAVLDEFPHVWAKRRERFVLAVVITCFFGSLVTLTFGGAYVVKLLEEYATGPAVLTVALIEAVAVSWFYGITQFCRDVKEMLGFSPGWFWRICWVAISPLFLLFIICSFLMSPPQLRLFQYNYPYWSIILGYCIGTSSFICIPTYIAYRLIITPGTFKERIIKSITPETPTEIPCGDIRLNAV

CN(C)CCc1c[nH]c2cccc(O)c12 [psilocin]
agonist potency at serotonin 5-HT1 receptors [1]: potent agonists
interaction with the SERT (5-HT transporter (SERT)): inhibits the 5-HT transporter

CCN(CC)C(=O)[C@@H]1C=C2c3cccc4[nH]cc(c34)C[C@H]2N(C)C1 [LSD, lysergic acid diethylamide]
agonist potency at serotonin 5-HT1 receptors [1]: potent agonists
time of onset of the subjective response, any drug effect VAS (mean±SD) (healthy humans; 0.1 mg LSD (Holze et al., 2019a), range 0.3-1.0): 0.7 ± 0.2 h
duration of subjective effects (mean±SD) (healthy humans; 0.1 mg LSD (Holze et al., 2019a), range 5.3-12.8): 8.5 ± 2.0 h
time of offset of the subjective response, any drug effect VAS (mean±SD) (healthy humans; 0.1 mg LSD (Holze et al., 2019a), range 6.0-13.2): 9.1 ± 2.0 h
subjects with bad drug effects (50% or more on a 0-100% scale at any time point) (healthy humans; 0.1 mg LSD, 3 of 24 subjects (Dolder et al., 2017)): 12.5%
subjects with transient bad drug effects (healthy humans; 0.1 mg LSD, 7 of 24 subjects (Holze et al., 2019a)): 29%
duration of LSD effects (healthy humans; 0.1 mg dose (Dolder et al., 2017), range 5-14): 8.2 ± 2.1 h
subjects with bad drug effects (50% or more on a 0-100% scale at any time point) (healthy humans; 0.2 mg LSD, 9 of 16 subjects (Dolder et al., 2017)): 56%
subjects with marked anxiety (healthy humans; 0.2 mg LSD, sixteen healthy humans (Schmid et al., 2015)): two
duration of LSD effects (healthy humans; 0.2 mg dose (Dolder et al., 2017), range 7-19.5): 11.6 ± 1.7 h
subjective response to LSD compared to MDMA (healthy humans; LSD 0.1 mg vs MDMA 125 mg (Holze et al., 2019b)): clearly more pronounced
time to the subjective peak effect (healthy humans; LSD (Holze et al., 2019a), range 1.6-4.3): 2.5 ± 0.6 h and 2.5 h
start of LSD effect, on average (healthy humans; oral administration): 42 min
time after administration at which anxiety mostly occurs (peak effects) (healthy humans; oral dosing formulation of LSD): 1 to 4 h
alterations of consciousness on the 5D-ASC main and subscales (healthy human subjects [2]): comparable degrees of alterations of consciousness
stimulation of the 5-HT2A receptor (5-HT2A receptor): potently stimulates
Total average LC scores (healthy human subjects [3]): 18
peak subjective effects ratings of any drug effect (VAS) (healthy human subjects [4]; [5]): comparable peak subjective effects ratings
duration of any drug effect (VAS) (healthy human subjects [4]; 0.1 mg LSD, 100 mg MDMA or both, two subjects, FIG. 2A): lasted longer than those of MDMA
good drug effects duration (VAS) (healthy human subjects [4]; 0.1 mg LSD, 100 mg MDMA or both, two subjects, FIG. 2B): lasted longer
bad drug effects (VAS) (healthy human subjects [4]; [6]): minor subjective bad drug effects
anxiety (VAS) (healthy human subjects [4]; 0.1 mg LSD, 100 mg MDMA or both, two subjects, FIG. 3B): moderate anxiety at drug effect onset
nausea (VAS) (healthy human subjects [4]; 0.1 mg LSD, two subjects, FIG. 4B): moderate nausea at drug effect onset
ratings of openness (VAS) (healthy human subjects [4]; two subjects): lower increases in openness
changes in visual perception (VAS) (healthy human subjects [4]; two subjects, FIG. 5A): comparable changes in visual perception
synaesthesias (sounds influencing visual perception) (VAS) (healthy human subjects [4]; two subjects, FIG. 5B): comparable changes
changes in the perception of time (VAS) (healthy human subjects [4]; two subjects, FIG. 6A): comparable changes in the perception of time
ratings of being talkative (VAS) (healthy human subjects [4]; two subjects): reduces talkative
degree of intro or extroversion (VAS) (healthy human subjects [4]; two subjects, FIG. 11): no effect
wanting to be alone / with other people (VAS) (healthy human subjects [4]; two subjects): wanted to be with others and not alone
stimulation of D1-3 receptors (D1-3 receptors): stimulates D1-3 receptors
interaction with the SERT (5-HT transporter (SERT)): does not interact with the SERT

COc1cc(CCN)cc(OC)c1OC [mescaline]
affinity for D2 receptors (D2 receptors): no affinity
agonist potency at serotonin 5-HT1 receptors [1]: low potency

CNC(C)Cc1ccc2c(c1)OCO2 (stereo not shown) [MDMA, 3,4-methylenedioxymethamphetamine]
duration of the subjective effect (humans; MDMA (Vizeli et al., 2017)): 4.2 ± 1.3 h
onset of the MDMA effect (mean±SD) (humans; [7]): 33 ± 24 min and 33 min
time to peak effect after MDMA administration (humans; [7]): 1.6 ± 0.8 h and 1.6 h
Total average LC scores (healthy human subjects [3]): 12
peak subjective effects ratings of any drug effect (VAS) (healthy human subjects [4]; [5]): comparable peak subjective effects ratings
bad drug effects (VAS) (healthy human subjects [4]; [6]): moderately increased subjective bad drug effect ratings
ratings of openness (VAS) (healthy human subjects [4]; two subjects): increases ratings of openness
ratings of being talkative (VAS) (healthy human subjects [4]; two subjects): increases ratings of being talkative
ratings of trust (VAS) (healthy human subjects [4]; two subjects, FIG. 9A): increases feelings of trust
wanting to be alone / with other people (VAS) (healthy human subjects [4]; two subjects): wanted to be with others and not alone
